{
  "source": "patent US7803554B2",
  "about": "“Detection of binding factors with fluorescence polarization” (priority 2000, dated 2010)",
  "key": {"[1]": {"system": "mouse monoclonal antibody 8E11", "assay": "CE/LIF binding stoichiometry of TMR-BPDE oligonucleotides with antibody", "conditions": "24 nM oligonucleotide", "protocol": "The separation was carried out at room temperature with a separation voltage of 15 kV. The running buffer were either 1× tris-glycine (25 mM Tris, 192 mM glycine, pH 8.3) or 0.5× tris-glycine (12.5 mM tris and 96 mM glycine, pH 8.3). The capillary was washed approximately every 3 injections with 0.02 M NaOH electrophoretically at 15 kV for 7 min followed by electrophoresis using water and the running buffer for 7 min each. All capillary electrophoresis data were analyzed using Igor Pro software (version 3.1, WaveMetrics Inc., Lake Oswego, Oreg.).\nComplex formation of TMR-labeled BPDE-DNA adducts and antibody: TMR-BPDE-16-mer and TMR-BPDE-90-mer samples were diluted to appropriate concentrations in running buffer (tris-glycine, pH 8.3). The double stranded BPDE-90-mer was denatured by heating at 95° C. for 5 min in a heating block. It was then placed on ice to prevent reannealing. After cooling, the samples were briefly centrifuged in a microcentrifuge (Z233M, Hermle) to collect condensation from the side of the tube, then gently mixed to ensure a homogenous solution. TMR-BPDE-16-mer was synthesized as a single-stranded oligonucleotide. […] After addition of antibody to the BPDE-oligonucleotide solutions, the samples were gently vortexed to ensure complete mixing and incubated at the room temperature for 5-10 min, then analyzed by CE/LIF. […]"}, "SSB": {"biological_target": "SSB (Escherichia coli, UniProt P0AGE0)", "sequence (P0AGE0 2-178 limits assumed)": "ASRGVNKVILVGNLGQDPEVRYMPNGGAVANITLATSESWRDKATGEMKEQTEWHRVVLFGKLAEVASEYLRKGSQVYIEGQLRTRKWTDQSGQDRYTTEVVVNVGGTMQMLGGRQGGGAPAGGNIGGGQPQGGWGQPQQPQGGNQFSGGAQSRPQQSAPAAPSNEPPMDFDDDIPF", "conditions": "fluorescence quenching methods; Molineux 1975, Krauss 1981; cited from earlier work"}, "[2]": {"system": "mouse monoclonal antibody 8E11", "assay": "CE/LIF competitive binding of unlabeled BPDE-16-mer and TMR-BPDE-16-mer to antibody", "conditions": "9.6 nM 16mer*, 33 nM antibody", "protocol": "Simultaneous binding of two BPDE-DNA adducts to the antibody: Both TMR-labeled and unlabeled BPDE-adducts were allowed to bind with the antibody. The freshly diluted BPDE-16-mer (16mer) and TMR-BPDE-16-mer (16mer*) solutions were mixed together before addition of the antibody. Concentrations of the TMR-BPDE-16-mer and the antibody were kept constant at 9.6 nM and 33.3 nM, respectively, and the unlabeled BPDE-16-mer was varied from 2.5 nM to […]. The sample mixtures were incubated for 5 min at room temperature, then analyzed by CE/LIF. Similarly, the antibody was added to mixtures of the TMR-BPDE-16mer and BPDE-90mer to study the competitive binding and ligand exchange.\nThe relative changes of the primary and secondary complexes with varying concentrations of unlabeled 16mer when it is incubated with 9.6 nM TMR-labeled 16mer* and 33 nM (5 μg/mL) antibody were measured. When the concentration of the unlabeled 16mer is below 10 nM, the primary complex [Ab(16mer*)] dominates and its amount remains almost constant with increasing concentration of the unlabeled 16 mer up to 10 nM. The total ligand concentration (16mer* and 16mer) is lower compared with that of the antibody, and there are excess antibody binding sites available. Thus, no significant competition between the two ligands takes place. […]"}},
  "data": [
    {"substance": "16mer*: 5′-TMR-labeled 16-mer 5′-CCCATTATGCATAACC-3′ with a single BPDE adduct (single BPDE adduct, position not given here)", "values": [
      {"measurement": "share of total oligonucleotide present as secondary complex (1:2)", "setting": "[1]; antibody 1 μg/mL (maximum)", "value": 50, "unit": "%"},
      {"measurement": "share of total oligonucleotide present as primary complex (1:1) with the antibody", "setting": "[1]; antibody 8-16 μg/mL (50-100 nM)", "value": "80-85%"}
    ]},
    {"substance": "d(pT)8", "values": [
      {"measurement": "affinity of SSB", "setting": "SSB", "value": "about 2×10^6 M^−1"}
    ]},
    {"substance": "d(pT)16", "values": [
      {"measurement": "affinity of SSB", "setting": "SSB", "value": "1.4e+06", "unit": "M⁻¹"}
    ]},
    {"substance": "unlabeled 16mer: unlabeled 16-mer 5′-CCCATTATGCATAACC-3′ with a BPDE adduct (chemistry not fully specified)", "values": [
      {"measurement": "competitor concentration at which secondary complexes reach a maximum", "setting": "[2]", "value": 100, "unit": "nM"},
      {"measurement": "competitor concentration resulting in disappearance of the primary Ab(16mer*) complex", "setting": "[2]", "value": "above 250 nM"}
    ]}
  ]
}
